Entries after “also recorded” stand apart in the source; their conditions may differ.

The target of one assay is T1, Met (Homo sapiens, UniProt P08581).
T1 construct: endogenous in cells; host or cells: TPC-1 (human papillary thyroid carcinoma)
Description: Met autophosphorylation and expression in TPC-1 cells (IP/Western blotting). The format is cell-based. As to the method: FIG. 4. Inhibition of Met autophosphorylation and expression in human papillary thyroid carcinoma cells (TPC-1) treated with Cpd1. A): TPC-1 cells were exposed to solvent (−) or the indicated concentrations of Cpd 1 for 72 h. Equal amounts of protein were used for immunoprecipitation (IP) with anti-Met antibody or for the preparation of whole cell lysates (WCL). Immunoprecipitated proteins and WCLs were separated by SDS-PAGE, transferred to nitrocellulose membranes, and subjected to Western blotting with anti-pTyr or anti-Met antibodies. B): Cells were treated as in A. Cell extracts were immunoprecipitated with anti-pTyr antibody and probed with anti-Met antibody. C): Cells were serum-starved for 24 h and exposed to solvent or Cpd1 (60 μM) during the last 18 h. Then they were left untreated (−) or stimulated with 20 ng/ml HGF (+), for 10 min. Cell lysates were immunoprecipitated with anti-Met and probed with anti-pTyr or anti-Met antibody. Drug treatment abolished the constitutive or HGF-induced Met tyrosine phosphorylation and induced a reduction of Met expression.
The following human medullary thyroid carcinoma (MTC) cell lines were used in this study. The TT cell line derived from a MEN2A-associated MTC characterized by expression of the RET oncogene carrying the mutation C634W. The MZ-CRC-1 cell line derived from MEN2B-associated MTC characterized by expression of the RET oncogene carrying the mutation M918T. TT cells were cultivated in Ham's F12 medium (BioWhittaker, Verviers, Belgium) supplemented with 15% fetal calf serum (FCS) (Life Technologies, Inc., Gaithersburg, Md.) whereas MZ-CRC-1 cells were grown in Dulbecco's modified Eagle's medium (DMEM) (BioWhittaker) supplemented with 10% FCS. The human papillary thyroid carcinoma cell line TPC-1 which was used as a model of Met overexpression, was routinely cultivated in DMEM with 10% FCS. […]
For immunoprecipitation experiments, cells were treated with Cpd1 or solvent for the indicated times. […] Protein concentration was determined by the BCA reagent (Pierce). […]
A general note: A western blot detects proteins with antibodies after separation by electrophoresis.

In a further assay the target is T2, FGF-R1 (Mus musculus, UniProt P16092).
T2 construct: endogenous in cells; host or cells: Swiss3T3 (mouse fibroblasts)
T2 sequence (P16092 22-822): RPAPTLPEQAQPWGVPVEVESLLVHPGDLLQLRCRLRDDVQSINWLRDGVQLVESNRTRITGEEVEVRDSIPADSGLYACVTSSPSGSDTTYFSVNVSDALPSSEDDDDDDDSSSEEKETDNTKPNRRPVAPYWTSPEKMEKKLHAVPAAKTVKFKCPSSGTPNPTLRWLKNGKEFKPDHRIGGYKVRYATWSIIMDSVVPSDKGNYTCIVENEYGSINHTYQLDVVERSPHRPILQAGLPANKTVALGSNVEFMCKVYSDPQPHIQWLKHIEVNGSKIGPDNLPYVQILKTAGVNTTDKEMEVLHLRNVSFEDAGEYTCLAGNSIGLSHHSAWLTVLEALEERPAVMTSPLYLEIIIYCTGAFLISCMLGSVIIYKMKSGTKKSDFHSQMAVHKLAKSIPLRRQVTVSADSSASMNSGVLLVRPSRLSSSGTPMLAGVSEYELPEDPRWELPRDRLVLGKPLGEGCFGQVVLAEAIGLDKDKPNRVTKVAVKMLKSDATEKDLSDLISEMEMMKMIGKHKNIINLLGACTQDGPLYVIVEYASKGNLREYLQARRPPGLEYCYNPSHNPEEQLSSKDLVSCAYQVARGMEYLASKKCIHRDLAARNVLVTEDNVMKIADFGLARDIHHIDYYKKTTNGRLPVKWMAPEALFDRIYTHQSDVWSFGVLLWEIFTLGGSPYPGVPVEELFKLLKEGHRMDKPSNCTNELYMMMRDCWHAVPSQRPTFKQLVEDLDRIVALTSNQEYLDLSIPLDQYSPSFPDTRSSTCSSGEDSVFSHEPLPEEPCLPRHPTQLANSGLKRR
Description: FGF-R1 autophosphorylation and expression in Swiss3T3 cells. The format is cell-based. The following applies: 18 h. As to the method:
FIG. 6. Inhibition of autophosphorylation and expression of FGF-R1 and FGF-R3 receptors in whole cells by Cpd1. A): Swiss3T3 cells were serum starved for 24 h and then treated with Cpd1 at the indicated concentrations, for 18 h. After stimulation with 100 ng/ml FGF for 5 min, whole cell lysates were prepared and subjected to Western blotting with anti-pTyr or anti-FGF-R1. Protein loading by anti-actin blot is shown. B): NIH3T3 transformed by the FGF-R3 mutant Y373C were treated with the indicated concentrations, for 72 h. Cell extracts were immunoprecipitated with anti-FGF-R3 and then subjected to Western blotting with anti p-Tyr or anti-FGF-R3.
The following human medullary thyroid carcinoma (MTC) cell lines were used in this study. The TT cell line derived from a MEN2A-associated MTC characterized by expression of the RET oncogene carrying the mutation C634W. […]
For whole-cell extract preparation, cells were lysed in sodium dodecyl sulfate (SDS) sample buffer (62.5 mM Tris-HCl (pH 6.8), 2% SDS) with 1 mM PMSF, 10 μg/ml pepstatin, 12.5 μg/ml leupeptin, 100 KIU aprotinin, 1 mM sodium orthovanadate, 1 mM sodium molybdate. Protein concentration was determined in appropriately diluted aliquots by the bicinchionic acid (BCA) method (Pierce, Rockford, Ill.), then samples were adjusted to a final concentration of 10% glycerol, 5% β-mercaptoethanol, 0.001% bromophenol blue. […]

In a further assay the test system is PDGF-R. Kind of assay: PDGF-R autophosphorylation and expression in whole cells (2N5A, Swiss 3T3). The format is cell-based, mouse. As to the method: FIG. 5. Inhibition of PDGF-R autophosphorylation and expression in whole cells by Cpd 1. A): 2N5A cells (NIH3T3 transformed by the COL1A1/PDGFB rearrangement generating autocrine stimulation of PDGF-R) were treated with Cpd 1 at the indicated concentrations, for 72 h. Cell extracts were immunoprecipitated with anti-PDGF-R and subjected to Western blotting with anti-pTyr or anti-PDGF-R antibodies. B): Swiss 3T3 cells were serum starved for 24 h and then treated with Cpd1 at the indicated concentrations, for 18 h. After stimulation with 1 nM PDGF for 5 min, whole cell lysates were prepared and subjected to Western blotting with anti-pTyr or anti-PDGF-R. Protein loading by anti-actin blot is shown.
The following human medullary thyroid carcinoma (MTC) cell lines were used in this study. The TT cell line derived from a MEN2A-associated MTC characterized by expression of the RET oncogene carrying the mutation C634W. The MZ-CRC-1 cell line derived from MEN2B-associated MTC characterized by expression of the RET oncogene carrying the mutation M918T. TT cells were cultivated in Ham's F12 medium (BioWhittaker, Verviers, Belgium) supplemented with 15% fetal calf serum (FCS) (Life Technologies, Inc., Gaithersburg, Md.) whereas MZ-CRC-1 cells were grown in Dulbecco's modified Eagle's medium (DMEM) (BioWhittaker) supplemented with 10% FCS. The human papillary thyroid carcinoma cell line TPC-1 which was used as a model of Met overexpression, was routinely cultivated in DMEM with 10% FCS. N592 cells, derived from a human SCLC, were characterized by Kit activation through autocrine stimulation by the SCF ligand. N592 cells were cultured in RPMI 1640 supplemented with 10% FCS. The mouse SWISS3T3 and NIH3T3 fibroblasts were cultured in DMEM with 10% calf serum (Colorado Serum Company, Denver, Colo.). In addition, NIH3T3 cells transfected with different oncogenes were used. NIH3T3^MEN2A transfectants express the short isoform of the RET-MEN2A (C634R) oncogene; NIH3T3^KITΔ559 cells express KIT carrying the activating mutation Δ559 found in GISTs; NIH3T3^FGFR3(Y373C) express the FGF-R3 gene carrying the activating mutation Y373C found in a human multiple myeloma cell line. 2N5A cells are NIH3T3 cells-transformed by the COL1A1/PDGFB rearrangement generating autocrine stimulation of PDGF-R. All NIH3T3 transfectants were maintained in DMEM plus 5% calf serum in a 10% CO2 atmosphere.
For whole-cell extract preparation, cells were lysed in sodium dodecyl sulfate (SDS) sample buffer (62.5 mM Tris-HCl (pH 6.8), 2% SDS) with 1 mM PMSF, 10 μg/ml pepstatin, 12.5 μg/ml leupeptin, 100 KIU aprotinin, 1 mM sodium orthovanadate, 1 mM sodium molybdate. Protein concentration was determined in appropriately diluted aliquots by the bicinchionic acid (BCA) method (Pierce, Rockford, Ill.), then samples were adjusted to a final concentration of 10% glycerol, 5% β-mercaptoethanol, 0.001% bromophenol blue.
For immunoprecipitation experiments, cells were treated with Cpd1 or solvent for the indicated times. Cell monolayers were rinsed twice with cold phosphate-buffered saline plus 0.1 mM sodium orthovanadate and then left for 20 min on ice in lysis buffer (50 mM HEPES pH7.6, 150 mM NaCl, 10% glycerol, 1% Triton X-100, 1.5 mM MgCl2, 1 mM EGTA, 100 mM NaF, 10 mM sodium pyrophosphate, 10 μg/ml antipain, 20 μg/ml chymostatin, 10 μg/ml E64, 1 mg/ml pefabloc SC). […] Protein concentration was determined by the BCA reagent (Pierce). […]

T1 sequence (P08581 25-1390): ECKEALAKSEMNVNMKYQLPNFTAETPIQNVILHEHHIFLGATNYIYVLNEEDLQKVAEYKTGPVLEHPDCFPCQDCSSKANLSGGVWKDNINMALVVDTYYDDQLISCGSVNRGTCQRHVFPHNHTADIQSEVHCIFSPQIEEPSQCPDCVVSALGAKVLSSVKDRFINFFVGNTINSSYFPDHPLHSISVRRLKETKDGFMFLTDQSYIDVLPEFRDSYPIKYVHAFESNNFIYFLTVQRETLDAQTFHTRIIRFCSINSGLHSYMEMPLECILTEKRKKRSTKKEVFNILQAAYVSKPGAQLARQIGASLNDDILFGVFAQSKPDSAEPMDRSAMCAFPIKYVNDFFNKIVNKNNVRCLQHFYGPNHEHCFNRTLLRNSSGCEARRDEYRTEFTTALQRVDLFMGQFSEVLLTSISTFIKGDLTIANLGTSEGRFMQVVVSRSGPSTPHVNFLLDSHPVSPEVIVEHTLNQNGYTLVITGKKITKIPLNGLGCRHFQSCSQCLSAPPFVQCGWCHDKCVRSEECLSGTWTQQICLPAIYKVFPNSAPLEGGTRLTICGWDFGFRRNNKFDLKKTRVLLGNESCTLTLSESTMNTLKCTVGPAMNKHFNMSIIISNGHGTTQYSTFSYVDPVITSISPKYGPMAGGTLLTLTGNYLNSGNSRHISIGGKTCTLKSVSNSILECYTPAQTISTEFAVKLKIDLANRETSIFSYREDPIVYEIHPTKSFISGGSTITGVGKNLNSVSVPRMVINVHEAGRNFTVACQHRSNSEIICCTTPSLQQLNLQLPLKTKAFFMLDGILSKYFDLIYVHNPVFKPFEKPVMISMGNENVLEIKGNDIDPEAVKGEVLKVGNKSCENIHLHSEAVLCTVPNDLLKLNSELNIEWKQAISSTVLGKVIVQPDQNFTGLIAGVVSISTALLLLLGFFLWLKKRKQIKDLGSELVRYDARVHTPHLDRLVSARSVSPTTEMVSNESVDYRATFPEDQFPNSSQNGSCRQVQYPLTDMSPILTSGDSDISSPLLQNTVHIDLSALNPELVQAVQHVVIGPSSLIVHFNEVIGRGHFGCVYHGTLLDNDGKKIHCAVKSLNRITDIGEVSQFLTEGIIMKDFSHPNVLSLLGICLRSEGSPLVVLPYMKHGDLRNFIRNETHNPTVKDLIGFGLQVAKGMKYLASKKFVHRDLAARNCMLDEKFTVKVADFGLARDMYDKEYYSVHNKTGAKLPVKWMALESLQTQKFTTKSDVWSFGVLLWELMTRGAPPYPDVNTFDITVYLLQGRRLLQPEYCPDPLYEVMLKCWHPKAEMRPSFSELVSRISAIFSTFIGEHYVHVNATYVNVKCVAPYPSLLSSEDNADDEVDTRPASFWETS

Take `COc1cc2c(cc1OC)/C(=C\c1ccc(O)cc1)C(=O)N2` [Cpd 1, (E)-1,3-dihydro-5,6-dimethoxy-3-[(4-hydroxyphenyl)methylene]-2H-indol-2-one]: the Met expression result at Met (TPC-1 cells) was “reduction”. For the same compound, at Met (TPC-1 cells serum-starved, 60 μM for 18 h, 20 ng/ml HGF 10 min), the “HGF-induced Met tyrosine phosphorylation” value is given as “abolished”. Further, at Met (TPC-1 cells, 72 h), the “Constitutive Met tyrosine phosphorylation (autophosphorylation)” value is on record as “dose-dependent inhibition; also recorded: abolished”. At FGF-R1 (Swiss3T3 cells serum starved, 100 ng/ml FGF 5 min), the FGF-R1 tyrosine phosphorylation result is recorded as “dose-dependent inhibition”. The FGF-R1 expression result at FGF-R1 (Swiss3T3 cells) is given as “dose-dependent inhibition”. The PDGF-R tyrosine phosphorylation entry with PDGF-R (2N5A cells (autocrine stimulation), 72 h) is on record as “dose-dependent drug-induced inhibition”; in the assay on PDGF-R (Swiss 3T3 cells serum starved, 18 h, 1 nM PDGF 5 min), “dose-dependent drug-induced inhibition”. The PDGF-R expression result in the assay on PDGF-R (2N5A cells, 72 h) was “dose-dependent drug-induced inhibition”; with PDGF-R (Swiss3T3 cells, 18 h) it was “dose-dependent drug-induced inhibition”. Also, the “Concentration causing full inhibition of PDGF-R phosphorylation” value in the assay with PDGF-R (whole cells (FIG. 5)) is “higher than 15 μM”.

The record behind these values is patent US20090130229A1, “Antitumor uses of compound” (Cell Therapeutics, Inc., priority 2002, published 2009).
